The structures appear in SMILES notation.

Series [1] deals with MDA-MB-231 cells. As to the kind of experiment: Anti-proliferative activity, MDA-MB-231 breast carcinoma cells (Coulter counting). In kind it is cell-based. Conditions: Homo sapiens, MDA-MB-231, 72 h; mean ± SD of three independent experiments; 3 days of incubation; read-out: Tumor cells IC50 MDA-MB-231. From the text: (§1) The anti-proliferative activity of the synthesized benzofurane derivatives was studied in three human cancer cell lines [breast carcinoma (MDA-MB-231), lymphoblastic leukemia (CEM) and cervical carcinoma (HeLa) cells] and one endothelial cell line [human microvascular endothelial cells (HMEC-1)].
(§2) The human microvascular endothelial cell line HMEC-1 was obtained at passage 12 from the Centers for Disease Control and Prevention (Atlanta, GA, USA) and used from passage 17 till 27. Human breast carcinoma (MDA-MB-231), human cervical carcinoma (HeLa) and human T-lymphoid (CEM) cells were obtained from ATCC (Middlesex, UK). Cell lines were maintained in culture for up to 3 months and grown in DMEM, supplemented with 10% FBS, 0.01 M Hepes and 1 mM sodium pyruvate. All cells were cultured in a humidified 5% CO2 incubator at 37 °C.
(§3) HMEC-1 cells were seeded in 48-well plates at 20,000 cells/well. After 24 h, 5-fold dilutions of the compounds were added. The cells were allowed to proliferate 4 days in the presence of the compounds, trypsinized, and counted by means of a Coulter counter (Analis, Belgium). HeLa and MDA-MB-231 cells were seeded in 48-well plates at 10,000 cells/well. After 24 h, different concentrations of the compounds were added. After 3 days of incubation, the cells were trypsinized and counted in a Coulter counter. Suspension cells (human lymphoid Cem cells) were seeded in 96-well plates at 60,000 cells/well in the presence of different concentrations of the compounds, allowed to proliferate for 96 h, and counted in a Coulter counter. The 50% inhibitory concentration (IC50) was defined as the compound concentration required to reduce cell proliferation by 50%.

For another series, the system named is HeLa cells. Nature of the series: Anti-proliferative activity, HeLa cervical carcinoma cells (Coulter counting). In kind it is cell-based. To be noted: Homo sapiens, 72 h, mean ± SD of three independent experiments, 3 days of incubation, read-out: Tumor cells IC50 HeLa.
Text: as §1, §2, §3

Series [2] deals with HMEC-1 cells. Nature of the series: Anti-proliferative activity, HMEC-1 microvascular endothelial cells (Coulter counting). In kind it is cell-based. To be noted: Homo sapiens, HMEC-1, 96 h; mean ± SD of three independent experiments; 4 days; read-out: Endothelial cells IC50 HMEC-1.
Text: as §1, §2, §3

In a further series the test system is A2780 cells. Nature of the series: Anti-proliferative activity, A2780 ovarian carcinoma cells. Type of series: cell-based, human. To be noted: Homo sapiens, A2780; mean ± standard error of three independent experiments. From the text:
One of the most relevant causes of tumor resistance to chemotherapy is the overexpression of membrane pumps which remove the chemotherapeutic agents from the treated cells.

The test system of series [3] is MDA-MB-231 cells. As to the kind of experiment: Caspase-3 activity / apoptosis in live cells (fluorescence microscopy). In kind it is cell-based, human. To be noted: 1 µM, after 24 h. The procedure:
(§4) Figure 6 Mechanism of action of the benzofurane derivatives. (A) Inhibition of cell cycle progression. MDA-MB-231 cells were treated with DMSO (control) or compounds 8, 27 or 28 for 24 h. Next, the cells were harvested, stained with propidium iodide (PI), and cell cycle distribution was evaluated by flow cytometry. Percentages of cells in the different phases of the cell cycle are indicated. (B) Caspase-3 activity. MDA-MB-231 cells were seeded in 48-well plates at 40,000 cells/cm². After 24 h, different concentrations of compounds 8, 27 or 28 and 2 µM of the caspase-3 substrate DEVD-NucView488 were added. After 16 h, the cells were incubated with 2 µg/ml Hoechst 33342 to stain the nucleus, and imaged. (C) Disruption of the vascular network. HMEC-1 cells were cultured on matrigel for 3 h to allow the formation of tube-like structures. Next, different concentrations of compounds were added. Upper panel: After 90 min, pictures were taken and the tubular network was scored (3: intact network, 0: network completely destroyed). Bars show average ± SEM (n = 4). Lower panel: Microscopic pictures of the tubular network 3 h after addition of compound.
To confirm the capacity of compounds 27 and 28 to induce apoptosis, MDA-MB-231 cells were treated with the compounds for 24 h in the presence of NucView® 530 Caspase-3. This substrate is cleaved by active caspase-3 activity (the main executioner enzyme during apoptosis) to generate a fluorescent derivative that is analyzed using fluorescence microscopy.
MDA-MB-231 cells were seeded at 40,000 cells/cm². After 24 h, cells were incubated in Fluorobrite DMEM (Gibco), containing the compound and 2 µM of the caspase-3 substrate DEVD-NucView488 (Biotium, Hayward, CA). After 16 h, the DNA was stained with Hoechst33342 and the cells were imaged by fluorescence microscopy.

In series [4] the test system is HMEC-1 cells. Nature of the series: Disruption of a preformed vascular network on matrigel (tube formation). Type of series: cell-based, human. The procedure: as §4
Another feature of colchicine-site binding agents is their ability to destroy a 3-dimensional network of endothelial cells. To determine the vascular disrupting capacity of compounds 27 and 28, HMEC-1 cells were seeded on top of matrigel. This tumor derived extracellular matrix induces within 3 h the rearrangement of endothelial cells into a vascular network. Compounds 27 and 28 caused a disruption of the tubular network in a concentration-dependent manner (Fig. 6C).
Wells of a 96-well plate were coated with 70 µl matrigel (10 mg/ml, BD Biosciences, Heidelberg, Germany) at 4 °C. After gelatinization at 37 °C during 30 min, HMEC-1 cells were seeded at 60,000 cells/well on top of the matrigel in 200 µl DMEM containing 10% FCS. After 3 h of incubation at 37 °C, when the endothelial cells had reorganized to form tube-like structures, the compounds were added. Ninety minutes later, the cultures were photographed at 100 × magnification and analyzed using digitalized analysis.

The subject of series [5] is HMEC-1 cells. As to the kind of experiment: IncuCyte scratch wound migration assay with PI uptake. To be noted: for uptake of PI (toxicity): at the lowest concentration inhibiting wound closure (0.5, 0.06 and 0.06 µM). Type of series: cell-based. The procedure: Proper tubulin organization is not only required for cell division but also for cell motility and migration. Therefore, we evaluated the capacity of the compounds to inhibit the migration of HMEC-1 endothelial cells. To this end, we used the 96-well IncuCyte® scratch wound assay. After the creation of a cell-free zone (wound) in a confluent cell monolayer, compounds were added, and relative wound density was measured every minute and visualized in time-course plots. PI was added to all wells to visualize toxicity over time, i.e. only dead cells take up this cell-impermeable dye.
Figure 7 Inhibition of HMEC-1 migration. The 96-well IncuCyte® scratch wound assay was used to create a cell-free zone (wound) in a confluent cell monolayer. Next, compounds were added and the relative wound density was measured every minute and visualized in time-course plots (left panels). PI is added to all wells to visualize toxicity over time, i.e. only dead cells take up this cell-impermeable dye (right panels). Average ± SEM (n = 3) are shown.
Wounds were created in confluent HMEC-1 cells by means of the “Incucyte® wound maker”. Next, different concentrations of compound and PI were added and images were taken every 2 min for the duration of the experiment. The algorithm masks each phase-contrast image to identify the position of the wounded (cell-free) and unwounded (cell-occupied) zones. Relative wound density is calculated and visualized in time-course plots.

Take `COCc1cc2cccc(NC(C)=C3C(=O)CC(c4ccccc4)CC3=O)c2o1` (stereo not drawn) [Compound 27, 2-(1-((2-(Methoxymethyl)benzofuran-7-yl)amino)ethylidene)-5-phenylcyclohexane-1,3-dione]: the IC50 stood at 9 ± 1 nM in the series with MDA-MB-231 cells [1], 30 ± 2 nM in the series on HeLa cells, 16 ± 2 nM in the series on HMEC-1 cells [2] and 23 ± 2 nM in the series on A2780 cells. In addition, in the series with MDA-MB-231 cells [3], the “apoptotic rate (apoptotic cells, caspase-3 substrate)” value is on record as ~ 30%. Also, the entries for the “disruption of the vascular (tubular) network” value with HMEC-1 cells [4] (0.01 μM) and in the series on HMEC-1 cells [4] (0.1 μM) were “antivascular effect was still evident” and “nearly completely abrogated the vascular network”, respectively. Besides, the “lowest concentration inhibiting wound closure” value in the series with HMEC-1 cells [5] worked out at 0.06 µM. In addition, the “uptake of PI (toxicity)” value in the series with HMEC-1 cells [5] was “No increased uptake of PI”.
Take `CC(Nc1cccc2cc(COCCCO)oc12)=C1C(=O)CC(c2ccccc2)CC1=O` (stereo not drawn) [Compound 28, 2-(1-((2-((3-Hydroxypropoxy)methyl)benzofuran-7-yl)amino)ethylidene)-5-phenylcyclohexane-1,3-dione]: the IC50 amounted to 12 ± 5 nM in the series on MDA-MB-231 cells [1], 34 ± 3 nM with HeLa cells, 38 ± 3 nM with HMEC-1 cells [2] and 38 ± 7 nM in the series on A2780 cells. Also, the “apoptotic rate (apoptotic cells, caspase-3 substrate)” value in the series with MDA-MB-231 cells [3] is around 40%. Moreover, the “disruption of the vascular (tubular) network” value with HMEC-1 cells [4] (0.01 μM) is “antivascular effect was still evident”; in the series with HMEC-1 cells [4] (0.1 μM), “nearly completely abrogated the vascular network”. Also, the “lowest concentration inhibiting wound closure” value in the series on HMEC-1 cells [5] was 0.06 µM. Further, in the series with HMEC-1 cells [5], the “uptake of PI (toxicity)” value is on record as “No increased uptake of PI”.

By IC50 is commonly meant the concentration that inhibits the measured activity by half.

The values above are taken from publication PMC5844890 (Scientific Reports, 2018).
